Holding throughout (assay): microbe, parasite or virus in culture
The subject of one test is HIV-1APV5μM. The class given is cell-based. Conditions: for EC50: Human immunodeficiency virus 1, MT4, read-out: EC50 (μM), HIV-1APV5 μM; for n-fold change in EC50, HIV-1APV5 μM: compared to wild-type HIV-1NL4-3. How it is done: (§1) The susceptibility of HIV-1LAI and primary HIV-1 isolates to various drugs were determined as described previously (Koh et al. 2003 Antimicrob Agents Chemother 47:3123-9). Briefly, MT-2 cells (2×10^4/ml) were exposed to 100 50% tissue culture infectious doses (TCID50S) of HIV-1LAI, in the presence or absence of various concentrations of drugs in 96-well microculture plates and were incubated at 37° C. for 7 days. After 100 μl of the medium was removed from each well, 3-(4,5-dimetylthiazol-2-yl)-2,5-diphenyltetrazolium bromide (MTT) solution (10 μl, 7.5 mg/ml in phosphate-buffered saline) was added to each well in the plate, followed by incubation at 37° C. for 3 h. […] All assays were performed in duplicate or triplicate. To determine the susceptibility of primary HIV-1 isolates to drugs, phytohemagglutinin-activated peripheral blood mononuclear cells (PHA-PBMCs; 106/ml) were exposed to 50 TCID50S of each. The target cells were exposed to HIV-1104pre or drug-resistant HIV-1 in the presence or absence of various concentrations of drugs and were incubated for 7 days. Upon the conclusion of the culture, the amounts of p24 Gag protein in the supernatants were determined using a fully automated chemiluminescent enzyme immunoassay system (Lumipulse F; Fujirebio Inc., Tokyo, Japan) (Maeda et al. 2001 J Biol Chem 276:35194-200). To determine the drug susceptibility of certain laboratory HIV-1 strains, MT-4 cells were used as target cells. In brief, MT-4 cells (10^5/ml) were exposed to 100 TCID50S of drug-resistant HIV-1 strains in the presence or absence of various concentrations of drugs and on day 7 of culture, the supernatant was harvested and the amounts of p24 Gag protein were determined. […] All assays were performed in duplicate or triplicate.
(§2) Numbers in parentheses represent n-fold changes in EC50s for each isolate compared to the EC50s for wild-type HIV-1NL4-3.

The next test deals with HIV-1AZV5μM. The class given is cell-based. The conditions noted are these: for EC50: Human immunodeficiency virus 1, MT4, read-out: EC50 (μM), HIV-1AZV5 μM; for n-fold change in EC50, HIV-1AZV5 μM: compared to wild-type HIV-1NL4-3. The protocol:
as §1, §2

A further test relates to HIV-1LPV5μM. It is filed as cell-based. Conditions: for EC50: Human immunodeficiency virus 1, MT4, read-out: EC50 (μM), HIV-1LPV5 μM; for n-fold change in EC50, HIV-1LPV5 μM: compared to wild-type HIV-1NL4-3. The protocol:
as §1, §2

The next test relates to HIV-1NFV5μM. The class given is cell-based. Conditions: for EC50: Human immunodeficiency virus 1, MT4, read-out: EC50 (μM), HIV-1NPV5 μM; for n-fold change in EC50, HIV-1NPV5 μM: compared to wild-type HIV-1NL4-3. How it is done: as §1, §2
A further test concerns HIV-1SQV5μM. The class given is cell-based. The conditions noted are these: for EC50: Human immunodeficiency virus 1, MT4, read-out: EC50 (μM), HIV-1SQV5 μM; for n-fold change in EC50, HIV-1SQV5 μM: compared to wild-type HIV-1NL4-3. How it is done: as §1, §2
A further test has as its system HIV-1MDR/JSL. The class given is cell-based. The conditions noted are these: for EC50: Human immunodeficiency virus 1, read-out: EC50 (μM), HIV-1MDR/JSL (NSI). How it is done: as §1
These clinical strains contained 9 to 14 amino acid substitutions in the protease-encoding region, which have reportedly been associated with HIV-1 resistance to various PIs.
Amino acid substitutions identified in the protease-encoding region compared to the consensus type B sequence cited from the Los Alamos database include L63P in HIV-1ERS104pre; L10I, K14R, L33I, M36I, M46I, F53I, K55R, I62V, L63P, A71V, G73S, V82A, L90M, and I93L in HIV-1MDR/B; L10I, I15V, K20R, L24I, M36I, M46L, I54V, I62V, L63P, K70Q, V82A, and L89M in HIV-1MDR/C; L10I, V11I, T12E, I15V, L19I, R41K, M46L, L63P, A71T, V82A, and L90M in HIV-1MDR/G; L10I, K14R, R41K, M46L, I54V, L63P, A71V, V82A, L90M, I93L in HIV-1MDR/TM; L10I, K43T, M46L, I54V, L63P, A71V, V82A, L90M, and Q92K in HIV-1MDR/MM; L10I, L24I, I33F, E35D, M36I, N37S, M46L, I54V, R57K, I62V, L63P, A71V, G73S, and V82A in HIV-1MDR/JSL. HIV-1ERS104pre served as a source of wild-type HIV-1. EC50s were determined by using PHA-PBMs as target cells, and inhibition of p24 Gag protein production by each drug was used as an end point. Numbers in parentheses represent n-fold changes of EC50s for each isolate compared to EC50s for wild-type HIV-1ERS104pre.

Another test deals with HIV-1216-P50. The class given is cell-based, HIV-1. The conditions noted are these: for EC50: Human immunodeficiency virus 1, MT4, read-out: EC50 (μM), HIV-1216-p50; for n-fold change in EC50, HIV-1216-p50: compared to wild-type HIV-1NL4-3. The protocol:
(§3) Briefly, MT-2 cells (2×10^4/ml) were exposed to 100 50% tissue culture infectious doses (TCID50S) of HIV-1LAI, in the presence or absence of various concentrations of drugs in 96-well microculture plates and were incubated at 37° C. for 7 days. After 100 μl of the medium was removed from each well, 3-(4,5-dimetylthiazol-2-yl)-2,5-diphenyltetrazolium bromide (MTT) solution (10 μl, 7.5 mg/ml in phosphate-buffered saline) was added to each well in the plate, followed by incubation at 37° C. for 3 h. […] All assays were performed in duplicate or triplicate. […] To determine the drug susceptibility of certain laboratory HIV-1 strains, MT-4 cells were used as target cells. In brief, MT-4 cells (10^5/ml) were exposed to 100 TCID50S of drug-resistant HIV-1 strains in the presence or absence of various concentrations of drugs and on day 7 of culture, the supernatant was harvested and the amounts of p24 Gag protein were determined. […] All assays were performed in duplicate or triplicate.
as §2

For a further test, the system named is HIV-1246-1μM. It is filed as cell-based, HIV-1. Conditions: for EC50: Human immunodeficiency virus 1, MT4, read-out: EC50 (μM), HIV-1246-1 μM; for n-fold change in EC50, HIV-1246-1 μM: compared to wild-type HIV-1NL4-3. How it is done: as §3, §2
Another test deals with HIV-1286-1μM. The class given is cell-based, HIV-1. The conditions noted are these: for EC50: Human immunodeficiency virus 1, MT4, read-out: EC50 (μM), HIV-1286-1 μM; for n-fold change in EC50, HIV-1286-1 μM: compared to wild-type HIV-1NL4-3. How it is done:
as §3, §2

The subject of another test is HIV-1396-1μM. The class given is cell-based, HIV-1. The conditions noted are these: for EC50: Human immunodeficiency virus 1, MT4, read-out: EC50 (μM), HIV-1396-1 μM; for n-fold change in EC50, HIV-1396-1 μM: compared to wild-type HIV-1NL4-3. How it is done:
as §3, §2

Bounds are passed on as bounds.

Consider `CC(C)CN(C[C@@H](O)[C@H](Cc1ccccc1)NC(=O)O[C@H]1CCOC1)S(=O)(=O)c1ccc(N)cc1` [APV, Amprenavir], for which the EC50 was over 1 µM with HIV-1APV5μM; 0.28 ± 0.06 µM in the test on HIV-1AZV5μM; 0.26 ± 0.07 µM in the test with HIV-1LPV5μM; 0.028 ± 0.005 µM with HIV-1NFV5μM; 0.18 ± 0.1 µM in the test with HIV-1SQV5μM; 0.62 ± 0.02 µM in the test on HIV-1MDR/JSL. For the same molecule, the EC50 with HIV-1216-P50 was 0.26 ± 0.03 µM; with HIV-1246-1μM, 0.34 ± 0.015 µM; in the test with HIV-1286-1μM it was over 1 µM; with HIV-1396-1μM, 0.35 ± 0.0002 µM.

`COC(=O)N[C@H](C(=O)N[C@@H](Cc1ccccc1)[C@@H](O)CN(Cc1ccc(-c2ccccn2)cc1)NC(=O)[C@@H](NC(=O)OC)C(C)(C)C)C(C)(C)C` [AZV, Atazanavir]: the EC50 is 0.006 ± 0.002 µM in the test on HIV-1APV5μM; over 1 µM in the test on HIV-1AZV5μM; 0.036 ± 0.001 µM in the test on HIV-1LPV5μM; 0.027 ± 0.005 µM in the test on HIV-1NFV5μM; 0.21 ± 0.065 µM in the test with HIV-1SQV5μM; 0.43 ± 0.036 µM in the test on HIV-1MDR/JSL. In addition, the EC50 with HIV-1216-P50 was determined as 0.014 ± 0.003 µM; in the test with HIV-1246-1μM, 0.032 ± 0.003 µM; with HIV-1286-1μM, 0.021 ± 0.012 µM; with HIV-1396-1μM, 0.024 ± 0.002 µM. Moreover, the “n-fold change in EC50, HIV-1APV5 μM” value in the test with HIV-1APV5μM is reported as “(2)”. The “n-fold change in EC50, HIV-1AZV5 μM” value in the test with HIV-1AZV5μM is on record as over 250. Further, the “n-fold change in EC50, HIV-1LPV5 μM” value in the test with HIV-1LPV5μM was “(9)”. For the same molecule, the “n-fold change in EC50, HIV-1NPV5 μM” value with HIV-1NFV5μM is “(7)”. Besides, the “n-fold change in EC50, HIV-1SQV5 μM” value in the test on HIV-1SQV5μM is recorded as “(53)”. Besides, in the test with HIV-1MDR/JSL (compared to wild-type HIV-1ERS104pre), the “n-fold change of EC50, HIV-1MDR/JSL” value is “(215)”. For the same molecule, the “n-fold change in EC50, HIV-1216-p50” value in the test with HIV-1216-P50 is listed as “(4)”. In the test with HIV-1246-1μM, the “n-fold change in EC50, HIV-1246-1 μM” value is listed as “(10)”. In addition, the “n-fold change in EC50, HIV-1286-1 μM” value in the test on HIV-1286-1μM was “(7)”. The “n-fold change in EC50, HIV-1396-1 μM” value in the test with HIV-1396-1μM is “(8)”.

On to `COc1ccc2c(c1)OCCCC=CCCCCN(CC(O)C(Cc1ccccc1)NC(=O)OC1COC3OCCC13)S2(=O)=O` (stereo not shown) [Compound 14b], for which the EC50 in the test with HIV-1APV5μM is over 1 µM; with HIV-1AZV5μM it was 0.03 ± 0.006 µM; in the test on HIV-1LPV5μM, 0.35 ± 0.019 µM; in the test on HIV-1NFV5μM, 0.041 ± 0.006 µM; with HIV-1SQV5μM, 0.046 ± 0.021 µM; with HIV-1MDR/JSL, 0.21 ± 0.032 µM. In addition, the EC50 was 0.19 ± 0.06 µM in the test on HIV-1216-P50, 0.33 ± 0.03 µM in the test with HIV-1246-1μM, over 1 µM in the test with HIV-1286-1μM and 0.25 ± 0.05 µM in the test on HIV-1396-1μM. Moreover, the “n-fold change in EC50, HIV-1APV5 μM” value in the test with HIV-1APV5μM is over 111. For the same molecule, in the test with HIV-1AZV5μM, the “n-fold change in EC50, HIV-1AZV5 μM” value is listed as “(3)”. Moreover, the “n-fold change in EC50, HIV-1LPV5 μM” value with HIV-1LPV5μM is listed as “(39)”. Moreover, the “n-fold change in EC50, HIV-1NPV5 μM” value with HIV-1NFV5μM is “(5)”. Besides, the “n-fold change in EC50, HIV-1SQV5 μM” value in the test with HIV-1SQV5μM is “(5)”. Moreover, the “n-fold change in EC50, HIV-1216-p50” value with HIV-1216-P50 is recorded as “(32)”. Besides, the “n-fold change in EC50, HIV-1246-1 μM” value in the test on HIV-1246-1μM is recorded as “(55)”. Further, the “n-fold change in EC50, HIV-1286-1 μM” value in the test with HIV-1286-1μM is reported as over 167. Also, the “n-fold change in EC50, HIV-1396-1 μM” value with HIV-1396-1μM was “(42)”.

Values taken from patent US9617276B2, “Compounds and methods for treating AIDS and HIV infections” (priority 2009, dated 2017).
